Data taken from ChEMBL document CHEMBL3991601, “The target landscape of clinical kinase drugs” (Science, 2017).
Active and inactive are the calls of the source.

Legend:
[1] = target: DNA topoisomerase 2-alpha (Homo sapiens, UniProt P11388)
[2] = target: T1, Cyclin-dependent kinase-like 5 (Homo sapiens, UniProt O76039)
T1 sequence (O76039 whole entry): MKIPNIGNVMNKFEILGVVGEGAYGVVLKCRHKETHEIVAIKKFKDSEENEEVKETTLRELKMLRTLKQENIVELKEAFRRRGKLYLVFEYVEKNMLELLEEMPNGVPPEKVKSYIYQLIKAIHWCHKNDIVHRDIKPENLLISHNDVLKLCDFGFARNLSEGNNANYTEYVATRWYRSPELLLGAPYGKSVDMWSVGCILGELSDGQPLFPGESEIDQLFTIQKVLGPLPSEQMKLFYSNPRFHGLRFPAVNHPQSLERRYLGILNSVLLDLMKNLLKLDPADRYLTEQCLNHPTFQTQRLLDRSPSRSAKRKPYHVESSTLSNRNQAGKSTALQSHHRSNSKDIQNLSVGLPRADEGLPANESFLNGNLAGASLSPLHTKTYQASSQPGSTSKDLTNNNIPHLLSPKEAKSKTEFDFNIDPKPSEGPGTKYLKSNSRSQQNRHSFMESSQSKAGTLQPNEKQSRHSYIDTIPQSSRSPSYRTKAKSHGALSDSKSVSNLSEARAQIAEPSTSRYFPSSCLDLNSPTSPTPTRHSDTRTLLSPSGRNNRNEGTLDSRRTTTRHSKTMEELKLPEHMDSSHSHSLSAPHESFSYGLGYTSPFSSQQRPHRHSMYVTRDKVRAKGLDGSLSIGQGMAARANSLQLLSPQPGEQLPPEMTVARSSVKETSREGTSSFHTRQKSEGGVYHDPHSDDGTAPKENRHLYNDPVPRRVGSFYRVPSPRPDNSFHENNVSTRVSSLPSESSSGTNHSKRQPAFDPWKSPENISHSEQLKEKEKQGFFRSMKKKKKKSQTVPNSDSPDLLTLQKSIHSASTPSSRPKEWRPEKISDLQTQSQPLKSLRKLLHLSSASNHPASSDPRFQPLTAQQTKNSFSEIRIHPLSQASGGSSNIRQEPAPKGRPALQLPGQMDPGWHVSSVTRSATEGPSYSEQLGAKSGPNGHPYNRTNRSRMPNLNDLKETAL

[3] = target: Phosphatidylethanolamine-binding protein 1 (Homo sapiens, UniProt P30086)
Chain of Phosphatidylethanolamine-binding protein 1 (P30086 whole entry, the tested form may be a part): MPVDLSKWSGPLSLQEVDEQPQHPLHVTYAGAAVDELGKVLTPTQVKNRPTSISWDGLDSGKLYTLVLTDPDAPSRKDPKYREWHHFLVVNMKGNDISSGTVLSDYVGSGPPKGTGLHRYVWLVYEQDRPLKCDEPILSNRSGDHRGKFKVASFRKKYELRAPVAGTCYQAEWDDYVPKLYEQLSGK

[4] = target: PAS domain-containing serine/threonine-protein kinase (Homo sapiens, UniProt Q96RG2)
Chain of PAS domain-containing serine/threonine-protein kinase (Q96RG2 whole entry, the tested form may be a part): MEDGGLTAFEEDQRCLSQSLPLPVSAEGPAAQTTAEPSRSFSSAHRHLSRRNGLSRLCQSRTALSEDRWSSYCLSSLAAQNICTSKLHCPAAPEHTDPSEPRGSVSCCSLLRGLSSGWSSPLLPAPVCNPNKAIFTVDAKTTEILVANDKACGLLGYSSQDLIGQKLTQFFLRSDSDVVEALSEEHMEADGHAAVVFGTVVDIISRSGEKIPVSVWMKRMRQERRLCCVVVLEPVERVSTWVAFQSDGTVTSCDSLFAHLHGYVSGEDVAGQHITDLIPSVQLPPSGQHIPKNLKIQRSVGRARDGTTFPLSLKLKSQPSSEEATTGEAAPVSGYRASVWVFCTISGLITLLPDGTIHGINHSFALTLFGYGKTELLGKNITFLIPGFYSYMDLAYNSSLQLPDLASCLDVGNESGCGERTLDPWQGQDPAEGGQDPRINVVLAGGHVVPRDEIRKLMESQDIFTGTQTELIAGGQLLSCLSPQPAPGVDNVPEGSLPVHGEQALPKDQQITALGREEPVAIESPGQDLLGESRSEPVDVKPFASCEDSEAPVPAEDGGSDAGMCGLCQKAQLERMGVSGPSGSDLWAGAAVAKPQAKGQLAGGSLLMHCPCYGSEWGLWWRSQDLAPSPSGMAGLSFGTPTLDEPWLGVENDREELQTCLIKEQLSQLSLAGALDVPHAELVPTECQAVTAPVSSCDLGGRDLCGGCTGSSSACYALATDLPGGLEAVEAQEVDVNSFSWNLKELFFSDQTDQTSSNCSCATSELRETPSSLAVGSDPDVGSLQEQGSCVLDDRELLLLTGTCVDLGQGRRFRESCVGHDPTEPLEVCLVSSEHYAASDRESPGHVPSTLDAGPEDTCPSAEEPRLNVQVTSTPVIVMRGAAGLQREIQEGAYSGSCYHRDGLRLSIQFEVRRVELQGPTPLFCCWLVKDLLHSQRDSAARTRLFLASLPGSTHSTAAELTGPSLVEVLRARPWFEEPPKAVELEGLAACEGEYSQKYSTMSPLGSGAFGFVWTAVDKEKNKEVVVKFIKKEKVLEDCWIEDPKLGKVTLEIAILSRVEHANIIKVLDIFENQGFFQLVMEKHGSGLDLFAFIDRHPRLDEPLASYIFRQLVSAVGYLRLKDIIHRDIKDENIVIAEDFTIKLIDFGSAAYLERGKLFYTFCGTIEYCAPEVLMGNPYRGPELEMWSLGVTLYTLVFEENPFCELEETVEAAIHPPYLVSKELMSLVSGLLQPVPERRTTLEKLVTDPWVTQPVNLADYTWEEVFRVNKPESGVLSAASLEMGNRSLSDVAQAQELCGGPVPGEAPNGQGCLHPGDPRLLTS

[5] = target: Dual specificity mitogen-activated protein kinase kinase 1 (Homo sapiens, UniProt Q02750)
Chain of Dual specificity mitogen-activated protein kinase kinase 1 (Q02750 whole entry): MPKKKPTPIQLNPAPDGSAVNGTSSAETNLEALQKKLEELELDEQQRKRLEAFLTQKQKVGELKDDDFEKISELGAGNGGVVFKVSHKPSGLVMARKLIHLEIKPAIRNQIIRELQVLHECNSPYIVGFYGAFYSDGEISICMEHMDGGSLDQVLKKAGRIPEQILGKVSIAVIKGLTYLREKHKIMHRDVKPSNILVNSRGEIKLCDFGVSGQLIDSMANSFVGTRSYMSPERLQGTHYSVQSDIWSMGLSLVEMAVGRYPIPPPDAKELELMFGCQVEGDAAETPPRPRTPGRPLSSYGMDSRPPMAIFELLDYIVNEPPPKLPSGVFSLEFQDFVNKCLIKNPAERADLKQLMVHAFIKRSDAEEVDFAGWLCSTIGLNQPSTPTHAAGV

[6] = target: T2, Receptor-type tyrosine-protein kinase FLT3 (Homo sapiens, UniProt P36888)
T2 sequence (P36888 whole entry): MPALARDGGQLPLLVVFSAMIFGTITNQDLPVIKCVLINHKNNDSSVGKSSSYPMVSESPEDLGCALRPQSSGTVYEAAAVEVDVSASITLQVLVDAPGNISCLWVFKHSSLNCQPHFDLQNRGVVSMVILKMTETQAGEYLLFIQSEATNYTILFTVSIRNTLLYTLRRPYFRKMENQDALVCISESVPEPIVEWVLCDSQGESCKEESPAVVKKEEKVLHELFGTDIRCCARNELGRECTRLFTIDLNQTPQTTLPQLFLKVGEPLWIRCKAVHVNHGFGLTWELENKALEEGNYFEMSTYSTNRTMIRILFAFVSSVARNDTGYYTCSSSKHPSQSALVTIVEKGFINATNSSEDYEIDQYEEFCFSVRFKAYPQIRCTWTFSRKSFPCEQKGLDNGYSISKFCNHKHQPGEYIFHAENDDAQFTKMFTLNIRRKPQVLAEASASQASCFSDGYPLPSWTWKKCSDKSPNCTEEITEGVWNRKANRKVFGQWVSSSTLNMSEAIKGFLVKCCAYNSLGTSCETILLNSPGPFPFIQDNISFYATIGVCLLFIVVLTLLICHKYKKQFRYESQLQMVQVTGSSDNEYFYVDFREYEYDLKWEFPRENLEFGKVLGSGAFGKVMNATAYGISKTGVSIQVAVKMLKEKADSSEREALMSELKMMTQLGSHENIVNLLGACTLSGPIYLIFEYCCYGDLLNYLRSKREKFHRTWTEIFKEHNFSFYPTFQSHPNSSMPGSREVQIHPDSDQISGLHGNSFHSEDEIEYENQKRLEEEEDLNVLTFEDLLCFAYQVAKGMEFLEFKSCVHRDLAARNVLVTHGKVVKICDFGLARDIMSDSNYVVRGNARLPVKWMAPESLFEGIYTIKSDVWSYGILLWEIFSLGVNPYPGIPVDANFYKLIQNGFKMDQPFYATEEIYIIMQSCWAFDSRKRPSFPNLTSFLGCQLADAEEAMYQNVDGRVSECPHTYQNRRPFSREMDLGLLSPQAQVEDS

[7] = target: Serine/threonine-protein kinase N3 (Homo sapiens, UniProt Q6P5Z2)
Chain of Serine/threonine-protein kinase N3 (Q6P5Z2 whole entry): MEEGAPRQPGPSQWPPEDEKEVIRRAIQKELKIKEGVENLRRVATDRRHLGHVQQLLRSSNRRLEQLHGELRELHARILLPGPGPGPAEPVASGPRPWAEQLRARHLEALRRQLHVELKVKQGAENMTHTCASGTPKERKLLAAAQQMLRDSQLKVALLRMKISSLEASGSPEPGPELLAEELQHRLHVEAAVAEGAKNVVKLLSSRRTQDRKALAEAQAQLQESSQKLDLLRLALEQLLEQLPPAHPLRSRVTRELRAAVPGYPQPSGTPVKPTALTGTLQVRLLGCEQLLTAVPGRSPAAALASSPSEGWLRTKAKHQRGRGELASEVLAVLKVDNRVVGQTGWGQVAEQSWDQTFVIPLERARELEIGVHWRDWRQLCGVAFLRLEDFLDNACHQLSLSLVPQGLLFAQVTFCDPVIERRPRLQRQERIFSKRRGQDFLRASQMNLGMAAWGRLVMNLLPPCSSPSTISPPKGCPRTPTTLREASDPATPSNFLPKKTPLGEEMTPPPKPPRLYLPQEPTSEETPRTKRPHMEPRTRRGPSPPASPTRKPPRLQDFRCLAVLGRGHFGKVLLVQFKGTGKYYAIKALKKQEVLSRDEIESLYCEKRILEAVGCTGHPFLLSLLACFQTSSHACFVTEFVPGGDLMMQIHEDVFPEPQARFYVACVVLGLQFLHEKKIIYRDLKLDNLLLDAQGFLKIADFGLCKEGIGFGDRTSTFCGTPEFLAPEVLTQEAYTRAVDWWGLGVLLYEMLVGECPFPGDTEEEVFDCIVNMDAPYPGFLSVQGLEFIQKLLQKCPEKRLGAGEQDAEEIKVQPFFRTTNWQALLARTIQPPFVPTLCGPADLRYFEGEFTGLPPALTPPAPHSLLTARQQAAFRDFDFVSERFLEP
Further: in the data inactive means no Kd found up to 30 µM.

Chain of DNA topoisomerase 2-alpha (P11388 whole entry): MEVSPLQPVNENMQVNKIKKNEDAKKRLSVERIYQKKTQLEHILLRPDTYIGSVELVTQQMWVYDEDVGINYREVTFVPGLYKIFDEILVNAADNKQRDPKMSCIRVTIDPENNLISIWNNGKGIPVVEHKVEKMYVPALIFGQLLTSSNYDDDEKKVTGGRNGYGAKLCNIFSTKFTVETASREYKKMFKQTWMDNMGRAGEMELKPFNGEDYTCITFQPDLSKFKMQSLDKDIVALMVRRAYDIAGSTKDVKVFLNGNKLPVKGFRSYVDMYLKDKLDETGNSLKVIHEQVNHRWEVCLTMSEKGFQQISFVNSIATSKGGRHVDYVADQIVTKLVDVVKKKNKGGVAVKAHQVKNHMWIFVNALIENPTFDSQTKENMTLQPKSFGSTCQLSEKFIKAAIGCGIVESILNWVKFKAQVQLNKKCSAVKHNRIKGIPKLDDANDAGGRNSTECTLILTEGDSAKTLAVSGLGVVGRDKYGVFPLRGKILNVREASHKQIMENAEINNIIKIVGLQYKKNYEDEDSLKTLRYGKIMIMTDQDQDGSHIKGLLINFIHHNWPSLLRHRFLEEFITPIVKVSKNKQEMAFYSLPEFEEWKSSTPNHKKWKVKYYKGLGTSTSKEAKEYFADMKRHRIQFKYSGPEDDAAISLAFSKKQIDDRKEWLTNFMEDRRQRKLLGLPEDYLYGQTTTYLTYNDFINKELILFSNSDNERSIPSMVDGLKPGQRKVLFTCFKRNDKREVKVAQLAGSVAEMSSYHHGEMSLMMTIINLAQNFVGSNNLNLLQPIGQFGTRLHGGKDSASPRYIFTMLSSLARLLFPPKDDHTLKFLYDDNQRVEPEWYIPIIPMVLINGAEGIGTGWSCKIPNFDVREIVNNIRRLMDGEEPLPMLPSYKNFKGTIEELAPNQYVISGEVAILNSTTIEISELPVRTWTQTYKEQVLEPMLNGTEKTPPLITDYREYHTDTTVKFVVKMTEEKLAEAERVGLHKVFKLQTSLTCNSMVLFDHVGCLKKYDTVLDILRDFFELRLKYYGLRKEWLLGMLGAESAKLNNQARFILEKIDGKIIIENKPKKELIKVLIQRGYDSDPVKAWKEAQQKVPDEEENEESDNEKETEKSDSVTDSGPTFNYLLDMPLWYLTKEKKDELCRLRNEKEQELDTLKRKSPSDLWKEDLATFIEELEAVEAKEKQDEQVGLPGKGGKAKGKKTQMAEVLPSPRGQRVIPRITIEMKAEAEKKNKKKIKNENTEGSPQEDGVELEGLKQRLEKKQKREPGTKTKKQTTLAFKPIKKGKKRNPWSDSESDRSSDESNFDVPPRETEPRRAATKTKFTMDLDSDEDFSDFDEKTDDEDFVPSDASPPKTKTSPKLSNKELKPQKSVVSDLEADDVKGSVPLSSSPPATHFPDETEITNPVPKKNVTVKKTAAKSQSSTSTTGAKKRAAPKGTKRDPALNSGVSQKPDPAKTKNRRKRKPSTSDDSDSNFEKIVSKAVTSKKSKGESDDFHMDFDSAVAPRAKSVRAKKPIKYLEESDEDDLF

Compound	Kd [1]	Kd [2]	Kd [3]	Kd [5]	Kd [6]	Kd [7]	Kd [4]
CCN(CCCOc1ccc2c(Nc3cc(CC(=O)Nc4cccc(F)c4)n[nH]3)ncnc2c1)CCOP(=O)(O)O [BARASERTIB]	> 30 µM (inactive)	> 30 µM (inactive)	> 30 µM (inactive)				
COc1cc(Nc2ncc(F)c(Nc3ccc4c(n3)N(COP(=O)(O)O)C(=O)C(C)(C)O4)n2)cc(OC)c1OC [FOSTAMATINIB]		> 30 µM (inactive)	> 30 µM (inactive)	> 30 µM (inactive)	0.843 µM (active)		> 30 µM (inactive)
COc1ccc(-c2ccc3ncc4c(c3c2)n(-c2ccc(N3CCNCC3)c(C(F)(F)F)c2)c(=O)n4C)cn1 [BGT-226 FREE BASE]	> 30 µM (inactive)		> 30 µM (inactive)	> 30 µM (inactive)	> 30 µM (inactive)		> 30 µM (inactive)
FC(F)(F)c1ccc(CNc2ccc(Cc3c[nH]c4ncc(Cl)cc34)cn2)cn1 [PEXIDARTINIB]	> 30 µM (inactive)			> 30 µM (inactive)			> 30 µM (inactive)
C=CC(=O)Nc1cccc(Nc2nc(Nc3ccc(N4CCN(C(C)=O)CC4)cc3OC)ncc2C(F)(F)F)c1 [ROCILETINIB]	> 30 µM (inactive)		> 30 µM (inactive)	> 30 µM (inactive)	> 30 µM (inactive)		
N#CCNC(=O)c1ccc(-c2ccnc(Nc3ccc(N4CCOCC4)cc3)n2)cc1 [MOMELOTINIB]	> 30 µM (inactive)	> 30 µM (inactive)	> 30 µM (inactive)				> 30 µM (inactive)
CCN1CCN(Cc2ccc(Nc3ncc(F)c(-c4cc(F)c5nc(C)n(C(C)C)c5c4)n3)nc2)CC1 [ABEMACICLIB]	> 30 µM (inactive)	> 30 µM (inactive)		> 30 µM (inactive)		> 30 µM (inactive)	
COc1cc(F)c(F)c(Nc2ccc(I)cc2F)c1NS(=O)(=O)C1(C[C@H](O)CO)CC1 [REFAMETINIB]		> 30 µM (inactive)	> 30 µM (inactive)		> 30 µM (inactive)		> 30 µM (inactive)
O=c1[nH]c([C@@H]2CCCN2)nc2c1oc1ccc(Cl)cc12	> 30 µM (inactive)		> 30 µM (inactive)	> 30 µM (inactive)	> 30 µM (inactive)		
CC(C)CC(=O)Nc1[nH]nc2c1CN(C(=O)C1CCN(C)CC1)C2(C)C [PHA-793887]	> 30 µM (inactive)		> 30 µM (inactive)	> 30 µM (inactive)	> 30 µM (inactive)		> 30 µM (inactive)
O=C(O)c1ccc2c(c1)nc(Nc1cccc(Cl)c1)c1ccncc12 [SILMITASERTIB]		> 30 µM (inactive)		> 30 µM (inactive)		> 30 µM (inactive)	
CC[C@@](C)(Nc1ccnc(-c2c[nH]c3ncccc23)n1)C(=O)NCC(F)(F)F [DECERNOTINIB]	0.064 µM	> 30 µM (inactive)		> 30 µM (inactive)	> 30 µM (inactive)		> 30 µM (inactive)
Cc1c(NC(=O)OC[C@@H]2COCCN2)cn2ncnc(Nc3ccc4c(cnn4Cc4cccc(F)c4)c3)c12 [AC-480]			> 30 µM (inactive)	> 30 µM (inactive)	> 30 µM (inactive)		> 30 µM (inactive)
CC1(C)CNc2cc(NC(=O)c3cccnc3NCc3ccncc3)ccc21 [MOTESANIB]			> 30 µM (inactive)				
COCCN1CCN(Cc2ccc(-c3n[nH]c4c3C(=O)c3c(NC(=O)NN5CCOCC5)cccc3-4)cc2)CC1 [RGB-286638]	> 30 µM (inactive)		> 30 µM (inactive)	> 30 µM (inactive)	0.323 µM (active)		
COc1cc2ncnc(Nc3ccc(F)c(Cl)c3)c2cc1NC(=O)/C=C/CN1CCCCC1 [DACOMITINIB ANHYDROUS]		> 30 µM (inactive)	> 30 µM (inactive)	> 30 µM (inactive)	> 30 µM (inactive)		
O=S(=O)(c1cccc2cnccc12)N1CCCNCC1 [FASUDIL]	> 30 µM (inactive)		> 30 µM (inactive)				> 30 µM (inactive)
Cc1c(Cn2c(C)nc3c(C(=O)O)cc(N4CCOCC4)cc32)cccc1C(F)(F)F [GSK-2636771]	> 30 µM (inactive)			> 30 µM (inactive)	> 30 µM (inactive)		
NC[C@@](O)(c1ccc(Cl)cc1)c1ccc(-c2cn[nH]c2)cc1 [AT-13148]	> 30 µM (inactive)		> 30 µM (inactive)	> 30 µM (inactive)	> 30 µM (inactive)		
COc1cc2nccc(Oc3ccc(NC(=O)C4(C(=O)Nc5ccc(F)cc5)CC4)cc3)c2cc1OC [CABOZANTINIB]			> 30 µM (inactive)	> 30 µM (inactive)			
C=CCN(/C=C1/C(=O)O[C@H](COC)[C@@]2(C)C1=C(O)C(=O)C1=C2[C@H](OC(C)=O)C[C@]2(C)C(=O)CC[C@@H]12)CC=C [SONOLISIB]		> 30 µM (inactive)		> 30 µM (inactive)	> 30 µM (inactive)		
CCc1nc(C(N)=O)c(Nc2ccc(N3CCC(N4CCN(C)CC4)CC3)c(OC)c2)nc1NC1CCOCC1 [GILTERITINIB]	> 30 µM (inactive)	> 30 µM (inactive)					
Cn1c(=O)n(-c2ccc(C(C)(C)C#N)cc2)c2c3cc(-c4cnc5ccccc5c4)ccc3ncc21 [DACTOLISIB]	> 30 µM (inactive)		> 30 µM (inactive)			> 30 µM (inactive)	
CNC(=O)c1ccc(Nc2ncc(C(F)(F)F)c(NCc3nccnc3N(C)S(C)(=O)=O)n2)cc1 [DEFACTINIB]	> 30 µM (inactive)	0.016 µM		> 30 µM (inactive)	0.34 µM (active)	> 30 µM (inactive)	

Further lines, with some results ahead:

Kd [1]	Kd [2]	Kd [3]	Kd [5]	Kd [6]	Kd [7]	Compound	Kd [4]
	> 30 µM (inactive)	> 30 µM (inactive)	> 30 µM (inactive)	> 30 µM (inactive)	> 30 µM (inactive)	CC(C)(O)CC(=O)NCCn1ccc2ncnc(Nc3ccc(Oc4cccc(C(F)(F)F)c4)c(Cl)c3)c21 [TAK-285]	
> 30 µM (inactive)		> 30 µM (inactive)	> 30 µM (inactive)	> 30 µM (inactive)		COc1cc2ncnc3c2cc1OCCCCCN(C)Cc1ccc(Br)cc1N3 [JNJ-26483327]	
	> 30 µM (inactive)	> 30 µM (inactive)	> 30 µM (inactive)			COc1cccc(Nc2ncnn3ccc(CN4CC[C@@H](N)[C@H](O)C4)c23)c1 [BMS-690514]	
> 30 µM (inactive)		> 30 µM (inactive)				C[C@@]1(C(=O)Nc2ccc(F)nc2)CCCN1c1nc(Nc2cc(C3CC3)n[nH]2)c2cccn2n1 [BMS-754807]	
	> 30 µM (inactive)	> 30 µM (inactive)	> 30 µM (inactive)			CCOc1ccn(-c2ccc(F)cc2)c(=O)c1C(=O)Nc1ccc(Oc2ccnc(N)c2Cl)c(F)c1 [BMS-777607]	
> 30 µM (inactive)		> 30 µM (inactive)	> 30 µM (inactive)	> 30 µM (inactive)		COc1cccc2cc(-c3nc([C@H]4CC[C@H](C(=O)O)CC4)n4ncnc(N)c34)[nH]c12 [OSI-027]	
> 30 µM (inactive)	> 30 µM (inactive)		> 30 µM (inactive)	> 30 µM (inactive)		Cc1cc(C(=O)Nc2cc(Oc3ccc4nc(NC(=O)C5CC5)cn4n3)ccc2C)n(C)n1 [TAK-593]	
